This experiment deals with human GPR17 short isoform (Homo sapiens, UniProt Q13304). The experiment is described as follows: GPR17 cAMP assay (hGPR17 cAMP, TR-FRET, antagonist mode). The format is cell-based. The note with it: CHO-K1 cells stably expressing human GPR17 short isoform; EC80 of agonist MDL29,951; forskolin 15 μM; 30 min at room temperature. Here is the method: CHO-K1 cells stably expressing vector containing untagged human GPR17 short isoform (Roche) were cultured at 37° C./5% CO2 in DMEM (Dulbecco's Modified Eagle Medium): F-12 (1:1) supplemented with 10% foetal bovine serum and 400 μg/ml Geneticin.
Sequence of human GPR17 short isoform (Q13304 29-367): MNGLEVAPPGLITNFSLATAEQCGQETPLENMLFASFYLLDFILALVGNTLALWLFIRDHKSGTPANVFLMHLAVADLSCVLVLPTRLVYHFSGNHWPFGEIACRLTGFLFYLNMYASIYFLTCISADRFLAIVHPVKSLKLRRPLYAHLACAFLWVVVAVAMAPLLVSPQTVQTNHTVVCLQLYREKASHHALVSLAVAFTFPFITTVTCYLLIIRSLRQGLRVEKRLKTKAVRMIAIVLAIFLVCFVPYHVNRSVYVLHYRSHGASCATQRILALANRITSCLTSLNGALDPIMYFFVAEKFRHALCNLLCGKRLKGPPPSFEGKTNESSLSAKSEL
Changes in intracellular cyclic adenosine monophosphate (cAMP) levels were quantified using the Nano-TRF Detection Assay kit (Roche Diagnostics, Cat. No. 05214386001). This assay allows for direct cAMP quantification in a homogeneous solution. CAMP is detected based on time-resolved fluorescence energy transfer (TR-FRET) and competitive binding of ruthenylated cAMP and endogenous cAMP to an anti-cAMP monoclonal antibody labeled with AlexaFluor-700. The Ruthenium complex serves as the FRET donor and transfers energy to AlexaFluor-700. The FRET signal is inversely proportional to the CAMP concentration.
CHO-GPR17S cells were detached with Accutase and resuspended in assay buffer consisting of Hank's Balanced Salt Solution (HBSS), 10 mM HEPES (4-(2-hydroxyethyl) piperazine-1-ethanesulfonic acid solution) and 0.1% bovine serum albumin (pH 7.4). The cells were seeded in black 384-well plates (Corning) at a density of 10′000 cells/20 μl assay buffer until the addition of compounds.
Test antagonist compounds were serially diluted in dimethyl sulfoxide (DMSO) and spotted in 384-well plates. The compounds were then diluted in HBSS buffer supplemented with an EC80 concentration of MDL29,951 (3-(2-Carboxy-4,6-dichloroindol-3-yl) propionic acid) (GPR17 agonist) plus 3-Isobutyl-1-methylxanthine (IBMX) (0.5 mM final concentration) and added to the cells at room temperature. Forskolin (15 μM final concentration) was added 5 minutes after the test compounds and the cells were incubated at room temperature for 30 minutes. The assay was stopped by adding cAMP detection mix (containing detergents for cell lysis) for 90 minutes at room temperature.
Cellular cAMP was measured using a Paradigm reader (Molecular Devices). The raw data was used to calculate the FRET signal based on the assay's P-factor as per cAMP kit instructions. The data was normalized to the maximal activity of a reference antagonist and dose response curves were fitted to the percent activity of the test compounds using a sigmoidal dose response model (Genedata Screener).

On to `COc1nc(OCC(F)F)c(F)cc1NS(=O)(=O)c1cnc2cc(Br)ccn12` [Example 1, 7-bromo-N-[6-(2,2-difluoroethoxy)-5-fluoro-2-methoxy-3-pyridyl]imidazo[1,2-a]pyridine-3-sulfonamide], for which the IC50 came to 0.005 µM.
As to `COc1nc(OCC(F)F)c(F)cc1NS(=O)(=O)c1cnc2cc(C)ccn12` [Example 2, N-[6-(2,2-difluoroethoxy)-5-fluoro-2-methoxy-3-pyridyl]-7-methyl-imidazo[1,2-a]pyridine-3-sulfonamide], the IC50 stood at 0.007 µM.
For the molecule `COc1cc(CC#N)c(F)cc1NS(=O)(=O)c1cnc2cc(Br)ccn12` [Example 3, 7-bromo-N-[4-(cyanomethyl)-5-fluoro-2-methoxy-phenyl]imidazo[1,2-a]pyridine-3-sulfonamide], the IC50 was found to be 0.007 µM.
`COc1nc(OCC(F)F)c(F)cc1NS(=O)(=O)c1cnc2c(OC)c(C)ccn12` [Example 4, N-[6-(2,2-difluoroethoxy)-5-fluoro-2-methoxy-3-pyridyl]-8-methoxy-7-methyl-imidazo[1,2-a]pyridine-3-sulfonamide] yielded an IC50 of 0.008 µM.
For the molecule `COc1nc(OCC(F)F)c(F)cc1NS(=O)(=O)c1cnc2cc(OC(F)F)ccn12` [Example 5, N-[6-(2,2-difluoroethoxy)-5-fluoro-2-methoxy-3-pyridyl]-7-(difluoromethoxy)imidazo[1,2-a]pyridine-3-sulfonamide], the IC50 came to 0.008 µM.
As for `COc1nc(OCC(F)F)c(F)cc1NS(=O)(=O)c1cnc2c(F)c(Cl)ccn12` [Example 7, 7-chloro-N-[6-(2,2-difluoroethoxy)-5-fluoro-2-methoxy-3-pyridyl]-8-fluoro-imidazo[1,2-a]pyridine-3-sulfonamide], the IC50 turned out to be 0.009 µM.
The result for `COc1nc(OC(F)F)c(F)cc1NS(=O)(=O)c1cnc2cc(Br)ccn12` [Example 8, 7-bromo-N-[6-(difluoromethoxy)-5-fluoro-2-methoxy-3-pyridyl]imidazo[1,2-a]pyridine-3-sulfonamide] reads 0.009 µM.
`COc1nc(CCC(F)F)c(F)cc1NS(=O)(=O)c1cnc2cc(Cl)ccn12` [Example 9, 7-chloro-N-[6-(3,3-difluoropropyl)-5-fluoro-2-methoxy-3-pyridyl]imidazo[1,2-a]pyridine-3-sulfonamide] returned an IC50 of 0.011 µM.
The molecule `COc1nc(NS(=O)(=O)c2cnc3cc(Br)ccn23)c(F)cc1CC(F)F` [Example 10, 7-bromo-N-[5-(2,2-difluoroethyl)-3-fluoro-6-methoxy-2-pyridyl]imidazo[1,2-a]pyridine-3-sulfonamide] showed a half-inhibitory concentration (IC50) of 0.011 µM.
Regarding `COc1nc(CC(F)F)c(F)cc1NS(=O)(=O)c1cnc2cc(Cl)ccn12` [Example 11, 7-chloro-N-[6-(2,2-difluoroethyl)-5-fluoro-2-methoxy-3-pyridyl]imidazo[1,2-a]pyridine-3-sulfonamide], the IC50 came to 0.014 µM.
On to `COc1nc(OCC(F)F)c(F)cc1NS(=O)(=O)c1cnc2c(OC)c(Cl)ccn12` [Example 12, 7-chloro-N-[6-(2,2-difluoroethoxy)-5-fluoro-2-methoxy-3-pyridyl]-8-methoxy-imidazo[1,2-a]pyridine-3-sulfonamide], for which the IC50 stood at 0.016 µM.
`COc1nc(OC(F)F)c(F)cc1NS(=O)(=O)c1cnc2cc(C)ccn12` [Example 13, N-[6-(difluoromethoxy)-5-fluoro-2-methoxy-3-pyridyl]-7-methyl-imidazo[1,2-a]pyridine-3-sulfonamide]: the IC50 was found to be 0.018 µM.
`COc1nc(OCC(F)F)c(F)cc1NS(=O)(=O)c1cnc2cc(C(F)F)ccn12` [Example 14, N-[6-(2,2-difluoroethoxy)-5-fluoro-2-methoxy-3-pyridyl]-7-(difluoromethyl)imidazo[1,2-a]pyridine-3-sulfonamide] had an IC50 of 0.018 µM.
As for `COc1ccn2c(S(=O)(=O)Nc3cc(F)c(OCC(F)F)nc3OC)cnc2c1` [Example 15, N-[6-(2,2-difluoroethoxy)-5-fluoro-2-methoxy-3-pyridyl]-7-methoxy-imidazo[1,2-a]pyridine-3-sulfonamide], the IC50 was found to be 0.018 µM.
Consider `COc1nc(OCC(F)F)c(F)cc1NS(=O)(=O)c1cnc2nc(C3CC3)ccn12` [Example 16, 7-cyclopropyl-N-[6-(2,2-difluoroethoxy)-5-fluoro-2-methoxy-3-pyridyl]imidazo[1,2-a]pyrimidine-3-sulfonamide], for which the IC50 was 0.018 µM.
The molecule `CCc1ccn2c(S(=O)(=O)Nc3cc(F)c(OCC(F)F)nc3OC)cnc2c1` [Example 17, N-[6-(2,2-difluoroethoxy)-5-fluoro-2-methoxy-3-pyridyl]-7-ethyl-imidazo[1,2-a]pyridine-3-sulfonamide] displayed an IC50 of 0.018 µM.
In turn, `COc1cc(CC#N)c(F)cc1NS(=O)(=O)c1cnc2nc(C3CC3)ccn12` [Example 18, N-[4-(cyanomethyl)-5-fluoro-2-methoxy-phenyl]-7-cyclopropyl-imidazo[1,2-a]pyrimidine-3-sulfonamide] gave an IC50 of 0.019 µM.
Consider `COc1nc(OC(F)F)c(F)cc1NS(=O)(=O)c1cnc2c(OC)c(C)ccn12` [Example 19, N-[6-(difluoromethoxy)-5-fluoro-2-methoxy-3-pyridyl]-8-methoxy-7-methyl-imidazo[1,2-a]pyridine-3-sulfonamide], for which the IC50 was 0.019 µM.
In the case of `COc1cc(CC#N)c(F)cc1NS(=O)(=O)c1cnc2cc(C)ccn12` [Example 20, N-[4-(cyanomethyl)-5-fluoro-2-methoxy-phenyl]-7-methyl-imidazo[1,2-a]pyridine-3-sulfonamide], the IC50 came to 0.021 µM.
Regarding `COc1nc(NS(=O)(=O)c2cnc3cc(Br)ccn23)c(F)cc1CC#N` [Example 21, 7-bromo-N-[5-(cyanomethyl)-3-fluoro-6-methoxy-2-pyridyl]imidazo[1,2-a]pyridine-3-sulfonamide], the half-inhibitory concentration (IC50) was found to be 0.021 µM.
With `COc1nc(CC#N)c(F)cc1NS(=O)(=O)c1cnc2cc(Cl)ccn12` [Example 22, 7-chloro-N-[6-(cyanomethyl)-5-fluoro-2-methoxy-3-pyridyl]imidazo[1,2-a]pyridine-3-sulfonamide] the figure was 0.023 µM; with `COc1nc(OCC(F)F)c(F)cc1NS(=O)(=O)c1cnc2n1CCC(C)C2` (stereo not shown) [Example 23, N-[6-(2,2-difluoroethoxy)-5-fluoro-2-methoxy-3-pyridyl]-7-methyl-5,6,7,8-tetrahydroimidazo[1,2-a]pyridine-3-sulfonamide], 0.023 µM.
For the molecule `COc1nc(NS(=O)(=O)c2cnc3cc(Cl)ccn23)c(F)cc1CC(F)F` [Example 24, 7-chloro-N-[5-(2,2-difluoroethyl)-3-fluoro-6-methoxy-2-pyridyl]imidazo[1,2-a]pyridine-3-sulfonamide], the IC50 came to 0.023 µM.
With `COc1nc(C2CC2)c(F)cc1NS(=O)(=O)c1cnc2cc(Cl)ccn12` [Example 25, 7-chloro-N-(6-cyclopropyl-5-fluoro-2-methoxy-3-pyridyl)imidazo[1,2-a]pyridine-3-sulfonamide] the figure was 0.023 µM; with `COc1nc(NS(=O)(=O)c2cnc3cc(Br)ccn23)c(F)cc1OC(F)F` [Example 26, 7-bromo-N-[5-(difluoromethoxy)-3-fluoro-6-methoxy-2-pyridyl]imidazo[1,2-a]pyridine-3-sulfonamide], 0.03 µM.

For the origin of these results see patent US20260242372A1, “NOVEL IMIDAZOPYRIDINE AND PYRAZOLOPYRIDINE SULFONAMIDE DERIVATIVES” (Hoffmann-La Roche Inc., priority 2022, published 2026).
